# The supplement of paper PMC10307832
# Tests used:
# Assay in all cases: relative viability (nuclei count vs DMSO), 5 days (fraction); higher = more cells survive
# [1] = compound: O=C(CCCCCCNC(=O)c1cnc(N(c2ccccc2)c2ccccc2)nc1)NO [Ricolinostat] + O=C(c1cc(Cc2n[nH]c(=O)c3ccccc23)ccc1F)N1CCN(C(=O)C2CC2)CC1 [Olaparib] (partner 8 µM)
# Method in brief: (§1)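 Lung cancer cell lines in 1536-well plates were dosed by pin tool the day after seeding, either with one drug alone or with a fixed anchor-drug dose plus five library-drug doses (not always all listed) in √10 steps. After 5 days, cells were fixed and their nuclei stained in one step (final 0.05% Triton X-100, 1% formaldehyde, 1 ug/ml Hoechst), then counted on 4× images. Relative viability is the nuclei count in treated wells divided by that in vehicle wells. Values are medians of duplicate plates.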
# [2] = compound: CC1=CN2C(=O)C=C(N=C2C(=C1)C(C)NC3=CC=CC=C3)N4CCOCC4 [TGX 221] + CS(=O)(=O)CCNCc1ccc(-c2ccc3ncnc(Nc4ccc(OCc5cccc(F)c5)c(Cl)c4)c3c2)o1 [Lapatinib] (partner 2 µM)
# Method in brief: as §1
# [3] = compound: O=C(CCCCCCNC(=O)c1cnc(N(c2ccccc2)c2ccccc2)nc1)NO [Ricolinostat] + N=C(N)NC(=N)NCCc1ccccc1 [Phenformin] (partner 250 µM)
# Method in brief: as §1
# [4] = compound: C1=CC=C(C(=C1)C2=CC=C(C=C2)C3=CSC4=C3C(=C(C(=O)N4)C#N)O)O + N=C(N)NC(=N)NCCc1ccccc1 [Phenformin] (partner 250 µM)
# Method in brief: as §1
cell line,measurement,setting,value
NCI-H727,relative viability,[1]; first compound 0.08 µM,0.827
same,relative viability,[1]; first compound 0.253 µM,0.624
same,relative viability,[1]; first compound 0.8 µM,0.75
same,relative viability,[1]; first compound 2.53 µM,0.611
same,relative viability,[2]; first compound 0.08 µM,0.751
same,relative viability,[2]; first compound 0.253 µM,0.731
same,relative viability,[2]; first compound 0.8 µM,0.794
same,relative viability,[2]; first compound 2.53 µM,0.832
same,relative viability,[2]; first compound 8 µM,0.919
same,relative viability,[3]; first compound 0.08 µM,0.342
same,relative viability,[3]; first compound 0.253 µM,0.734
same,relative viability,[3]; first compound 0.8 µM,0.529
same,relative viability,[3]; first compound 2.53 µM,0.572
same,relative viability,[4]; first compound 0.08 µM,0.484
same,relative viability,[4]; first compound 0.253 µM,0.668
same,relative viability,[4]; first compound 0.8 µM,0.416
same,relative viability,[4]; first compound 2.53 µM,0.491
same,relative viability,[4]; first compound 8 µM,0.514
